Laboratory results from article PMC12061237, “Berberine is a Novel Mitochondrial Calcium Uniporter Inhibitor that Disrupts MCU‐EMRE Assembly” (Advanced Science, 2025).

Biological target: T1, GST-MCU (recombinant) (Homo sapiens, UniProt Q8NE86)
T1 construct: recombinant GST fusion
T1 sequence (Q8NE86 51-351): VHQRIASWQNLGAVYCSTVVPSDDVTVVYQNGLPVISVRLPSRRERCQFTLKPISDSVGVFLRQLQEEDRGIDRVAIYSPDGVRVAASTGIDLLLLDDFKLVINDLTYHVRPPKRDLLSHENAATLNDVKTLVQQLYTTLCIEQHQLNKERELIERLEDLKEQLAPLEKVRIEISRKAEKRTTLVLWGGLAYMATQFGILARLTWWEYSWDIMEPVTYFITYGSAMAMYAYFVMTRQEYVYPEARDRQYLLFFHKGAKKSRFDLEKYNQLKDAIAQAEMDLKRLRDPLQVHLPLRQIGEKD
Assay: in vitro biotin pull-down, immunoblot
Assay type: binding
Details: biotin-labelled compound 2 µg, 4 °C; competed by free berberine

COc1ccc2cc3[n+](cc2c1OC(=O)CCCCCNC(=O)CCCC[C@@H]1SC[C@@H]2NC(=O)N[C@@H]21)CCc1cc2c(cc1-3)OCO2 [Biotin-Berberine]
in vitro biotin pull-down, immunoblot: Biotin‐BBR directly binds to recombinant glutathione‐S‐transferase (GST)‐MCU
